The assay deals with CCRF-CEM. Description: In vitro cytotoxic activity against CCRF-CEM human lymphoblastoid cells in culture. It is filed as functional, cell-based.

The results in this text go back to ChEMBL document CHEMBL1129202, “Palladium-catalysed synthesis of some biologically active 5, 6-disubstituted uracils” (Bioorg Med Chem Lett, 1996).

Each structure is given as a SMILES string.

Compound `Cc1ccc(C(=O)/C=C/c2nc(O)nc(O)c2Cl)cc1` had an IC50 of 12.2 µM.
Then `Cc1ccc(C(=O)/C=C/c2nc(O)nc(O)c2Br)cc1`, with 2.6 µM; and `Cc1ccc(C(=O)/C=C/c2nc(O)nc(O)c2I)cc1`, with 1.4 µM.
Then `COc1ccc(C(=O)/C=C/c2cc(O)nc(O)n2)cc1`, with 2.2 µM.
Then `Cc1ccc(C(=O)/C=C/c2cc(O)nc(O)n2)cc1`, with 1.8 µM.
